The structures appear in SMILES notation. pIC50: −log10 of the molar value. Residues, ends and D or L forms follow the SMILES beside them.

One assay concerns the target T1, Reg1_301-599 (amino acids 301-599 of human Regnase-1) phosphorylation by IKKβ (Homo sapiens, UniProt Q5D1E8).
T1 construct: made in house; host or cells: Expi293 cells
T1 sequence (Q5D1E8 301-599): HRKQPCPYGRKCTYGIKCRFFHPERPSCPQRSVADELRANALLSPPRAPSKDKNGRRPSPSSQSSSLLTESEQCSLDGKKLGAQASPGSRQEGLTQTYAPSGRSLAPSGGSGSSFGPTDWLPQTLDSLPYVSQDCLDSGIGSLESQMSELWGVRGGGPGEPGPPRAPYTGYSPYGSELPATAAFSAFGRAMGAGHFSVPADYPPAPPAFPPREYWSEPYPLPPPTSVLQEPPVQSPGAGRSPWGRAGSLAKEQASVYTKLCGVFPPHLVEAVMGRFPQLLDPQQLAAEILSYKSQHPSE
Briefly: Regnase-1 phosphorylation inhibition by compounds (AlphaScreen), IKKβ, C-terminal Regnase-1. It counts as biochemical. Conditions: Table 14, read-out: Phosphorylation inhibition Reg1_301-599, 50% inhibition concentration (IKKβ). The source says: The full-length sequence of human Regnase-1 (UniProt ID: Q5D1E8) was used to prepare a construct having a FLAG tag on the N-terminal side and a recognition sequence for biotin ligase BirA on the C-terminal side (FL_Reg1) as a target protein. The above-mentioned Regnase-1 was expressed in mammalian Expi293 cells, purified with FLAG M2 agarose, and isolated by gel filtration chromatography. When biotinylation was required, methods from nonpatent documents (BMC biotechnology, 2008,8,41; and Protein Science, 1999,8,921-929) were used.
Among the full-length human Regnase-1 sequence, the 1st to 546th amino acid sequence was prepared and made into a construct having a FLAG tag on the N-terminal side and a biotin ligase BirA recognition sequence on the C-terminal side (herein, a Regnase-1 lacking the C-terminal domain of Regnase-1 (amino acids 547 to 599 in the case of SEQ ID NO: 2) is referred to as “ΔCTD_Reg1”. “ΔCTD_Reg1” is different from “Regnase-1ΔCTD”, which is a C-terminal domain deletion variant resulting from a frameshift mutation caused by a 1 bp deletion at codon 517, as prepared in Example 13). In addition, the sequence from amino acids 301 to 599 of the full-length human Regnase-1 sequence was designated as C-terminal Regnase-1, and a construct having a FLAG tag on the N-terminal side and a recognition sequence for biotin ligase BirA on the C-terminal side was prepared (Reg1_301-599). The above-mentioned Regnase-1 was expressed in mammalian Expi293 cells, purified with FLAG M2 agarose, and isolated by gel filtration chromatography. When biotinylation was required, methods of nonpatent documents (BMC biotechnology, 2008,8,41; and Protein Science, 1999,8,921-929) were used.
Using Kinase assay buffer III (manufactured by SignalChem) supplemented with 2 mM DTT, 100 μM sodium vanadate, and 2 mM manganese chloride, kinase (IKKβ (manufactured by SignalChem) or TBK1 (manufactured by SignalChem)) and Regnase-1 were reacted in the presence of 10 μM ATP at room temperature for 2 hours to perform a phosphorylation reaction.
Phosphorylated Regnase-1 was detected by the AlphaScreen system. After each of the above-mentioned phosphorylated Regnase-1 antibodies was added and reacted at room temperature for one hour, anti-FLAG AlphaLISA Acceptor Beads (manufactured by PerkinElmer) and Protein A AlphaScreen Donor Beads (manufactured by PerkinElmer) were added, and EnVision (manufactured by PerkinElmer) was used to measure the excited luminescence. As a result, phosphorylated Regnase-1 produced by the phosphorylation reaction by kinase was specifically detected, and signals were confirmed to be enhanced in a manner dependent on Regnase-1 and kinase concentrations (FIG. 24).
After mixing 2 nM of the above-mentioned Regnase-1 and the compound, phosphorylated Regnase-1 produced by the phosphorylation reaction was detected by the AlphaScreen system. As the results, the inhibition rate was calculated from the signals obtained when adding the compound at each concentration, by defining the signal obtained with Regnase-1 alone to be 100% inhibition rate, and the signal obtained when the same amount of solvent (DMSO) is added in place of the compound as 0% inhibition rate. The 50% inhibition concentration (μM) was calculated from the obtained dose response curve (Table 11).
For `CC[C@H](C)[C@@H]1NC(=O)[C@H](CCCNC(=N)N)NC(=O)[C@H](Cc2ccc(O)cc2)NC(=O)[C@H](Cc2c[nH]c3ccccc23)NC(=O)[C@H](CO)NC(=O)[C@H](CC(N)=O)NC(=O)[C@H](C)N(C)C(=O)C[C@@H](C(=O)N2CCCC2)NC(=O)[C@H](CC(C)C)NC(=O)CNC(=O)[C@H](Cc2c[nH]c3ccccc23)NC1=O` [PP22] (HELM PEPTIDE1{[meA].N.S.W.Y.R.I.W.G.L.D.[C1CCN([*:1])C1]}$PEPTIDE1,PEPTIDE1,1:R1-11:R3$$$V2.0), the pIC50 was 4.51.

In the next assay the target is T2, FL_Reg1 (full-length human Regnase-1) phosphorylation by TBK1 (Homo sapiens, UniProt Q5D1E8).
T2 construct: made in house; host or cells: Expi293 cells
T2 sequence (Q5D1E8 1-599): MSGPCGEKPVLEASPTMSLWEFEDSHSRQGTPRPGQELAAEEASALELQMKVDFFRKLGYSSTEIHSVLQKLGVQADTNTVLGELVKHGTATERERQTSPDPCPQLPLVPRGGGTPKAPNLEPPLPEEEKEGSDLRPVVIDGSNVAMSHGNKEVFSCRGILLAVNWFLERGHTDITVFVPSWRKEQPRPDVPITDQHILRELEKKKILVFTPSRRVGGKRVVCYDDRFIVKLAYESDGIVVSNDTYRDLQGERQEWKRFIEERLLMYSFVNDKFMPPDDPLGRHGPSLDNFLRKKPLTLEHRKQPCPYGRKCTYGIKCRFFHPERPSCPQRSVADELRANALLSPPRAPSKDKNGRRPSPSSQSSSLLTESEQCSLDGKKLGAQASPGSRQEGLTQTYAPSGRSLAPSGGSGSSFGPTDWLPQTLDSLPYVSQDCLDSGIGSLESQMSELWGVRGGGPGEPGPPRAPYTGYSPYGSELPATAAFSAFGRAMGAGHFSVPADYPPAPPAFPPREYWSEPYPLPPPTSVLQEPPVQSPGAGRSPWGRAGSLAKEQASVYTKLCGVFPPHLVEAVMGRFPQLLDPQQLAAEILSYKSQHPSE
The assay is described as follows: Regnase-1 phosphorylation inhibition by compounds (AlphaScreen), TBK1, full-length Regnase-1. It counts as biochemical. As to conditions: Table 11; 2 nM Regnase-1; AlphaScreen; read-out: 50% inhibition concentration, Regnase-1 phosphorylation, FL_Reg1, TBK1. The essentials: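 FLAG/BirA-tagged human Regnase-1 constructs (full-length, 1–546 or 301–599), expressed in Expi293 cells, were used at 2 nM with compound and phosphorylated by IKKβ or TBK1 with 10 μM ATP, DTT, vanadate and MnCl2 for 2 h at room temperature. Phospho-Regnase-1 was read by AlphaScreen; IC50 came from % inhibition curves normalised to DMSO and Regnase-1-alone signals.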
As to `CC[C@H](C)[C@@H]1NC(=O)[C@H](CC(N)=O)NC(=O)[C@H](Cc2ccc(O)cc2)NC(=O)[C@H](Cc2c[nH]c3ccccc23)NC(=O)[C@H](CO)NC(=O)[C@H](CC(N)=O)NC(=O)[C@H](C)NC(=O)[C@H](Cc2ccc(O)cc2)NC(=O)CNC(=O)[C@H](C)N(C)C(=O)C[C@@H](C(=O)N2CCCC2)NC(=O)[C@H](Cc2c[nH]c3ccccc23)NC1=O` [PP2] (HELM PEPTIDE1{[meA].G.Y.A.N.S.W.Y.N.I.W.D.[C1CCN([*:1])C1]}$PEPTIDE1,PEPTIDE1,1:R1-12:R3$$$V2.0), the pIC50 is 4.66.
On to `CC[C@H](C)[C@@H]1NC(=O)[C@H](Cc2ccc(O)cc2)NC(=O)[C@H](C)N(C)C(=O)C[C@@H](C(=O)N2CCCC2)NC(=O)[C@H](CC(C)C)NC(=O)[C@H](CC(=O)O)NC(=O)CNC(=O)[C@H](Cc2ccccc2)NC(=O)[C@H](Cc2ccccc2)NC(=O)[C@H](CC(=O)O)NC(=O)[C@H](Cc2c[nH]c3ccccc23)NC1=O` [PP4] (HELM PEPTIDE1{[meA].Y.I.W.D.F.F.G.D.L.D.[C1CCN([*:1])C1]}$PEPTIDE1,PEPTIDE1,1:R1-11:R3$$$V2.0), for which the pIC50 is 4.21.
For the compound `CC[C@H](C)[C@@H]1NC(=O)[C@H](CCCCN)NC(=O)[C@H](Cc2ccccc2)NC(=O)[C@H](Cc2c[nH]c3ccccc23)NC(=O)[C@H](CO)NC(=O)[C@H](CO)NC(=O)[C@H](CC(N)=O)NC(=O)[C@@H]2CCCN2C(=O)[C@@H](C)N(C)C(=O)C[C@@H](C(=O)N2CCCC2)NC(=O)[C@H](Cc2c[nH]c3ccccc23)NC1=O` [PP6] (HELM PEPTIDE1{[C[C@H](C(=O)[*:2])N(C)[*:1]].P.N.S.S.W.F.K.I.W.D.[C1CCN([*:1])C1]}$PEPTIDE1,PEPTIDE1,1:R1-11:R3$$$V2.0), the pIC50 is 4.88.
Turning to `CC[C@H](C)[C@@H]1NC(=O)[C@H](CC(N)=O)NC(=O)[C@H](Cc2ccc(O)cc2)NC(=O)[C@H](Cc2c[nH]c3ccccc23)NC(=O)[C@H](C)NC(=O)[C@H](CC(N)=O)NC(=O)[C@H](CO)NC(=O)[C@H](Cc2c[nH]cn2)NC(=O)[C@H](C)N(C)C(=O)C[C@@H](C(=O)N2CCCC2)NC(=O)[C@H](Cc2c[nH]c3ccccc23)NC1=O` [PP5] (HELM PEPTIDE1{[meA].H.S.N.A.W.Y.N.I.W.D.[C1CCN([*:1])C1]}$PEPTIDE1,PEPTIDE1,1:R1-11:R3$$$V2.0), the pIC50 was 4.62.

Staying with this assay, now noted: Table 13; phosphorylation by TBK1; read-out: Phosphorylation inhibition FL_Reg1, 50% inhibition concentration (TBK1).
Take `CC[C@H](C)[C@@H]1NC(=O)[C@H](CCCNC(=N)N)NC(=O)[C@H](Cc2ccc(O)cc2)NC(=O)[C@H](Cc2c[nH]c3ccccc23)NC(=O)[C@H](CO)NC(=O)[C@H](CC(N)=O)NC(=O)[C@H](C)N(C)C(=O)C[C@@H](C(=O)N2CCCC2)NC(=O)[C@H](CC(C)C)NC(=O)CNC(=O)[C@H](Cc2c[nH]c3ccccc23)NC1=O` [PP22] (HELM PEPTIDE1{[meA].N.S.W.Y.R.I.W.G.L.D.[C1CCN([*:1])C1]}$PEPTIDE1,PEPTIDE1,1:R1-11:R3$$$V2.0): the pIC50 is 4.61.
Still for that read-out and setting: under `CC[C@H](C)[C@@H]1NC(=O)[C@H](CC(N)=O)NC(=O)[C@H]([C@@H](C)CC)NC(=O)[C@H](Cc2ccc(O)cc2)NC(=O)[C@H](Cc2c[nH]c3ccccc23)NC(=O)[C@H](CO)NC(=O)[C@H](CC(N)=O)NC(=O)[C@H](C)N(C)C(=O)C[C@@H](C(=O)N2CCCC2)NC(=O)[C@H](Cc2c[nH]cn2)NC(=O)CNC(=O)[C@H](Cc2c[nH]c3ccccc23)NC1=O` [PP15] (HELM PEPTIDE1{[meA].N.S.W.Y.I.N.I.W.G.H.D.[C1CCN([*:1])C1]}$PEPTIDE1,PEPTIDE1,1:R1-12:R3$$$V2.0) stands 5.07; under `CC[C@H](C)[C@@H]1NC(=O)[C@H](CC(N)=O)NC(=O)[C@H](Cc2ccc(O)cc2)NC(=O)[C@H](Cc2c[nH]c3ccccc23)NC(=O)[C@H](CO)NC(=O)[C@H](CC(N)=O)NC(=O)[C@H](CO)NC(=O)[C@H](Cc2ccccc2)NC(=O)[C@H](CC(N)=O)NC(=O)[C@H](C)N(C)C(=O)C[C@@H](C(=O)N2CCCC2)NC(=O)[C@H](Cc2c[nH]c3ccccc23)NC1=O` [PP16] (HELM PEPTIDE1{[meA].N.F.S.N.S.W.Y.N.I.W.D.[C1CCN([*:1])C1]}$PEPTIDE1,PEPTIDE1,1:R1-12:R3$$$V2.0), 4.28.
With `CC[C@H](C)[C@@H]1NC(=O)[C@H](CCCCN)NC(=O)[C@H](Cc2ccc(O)cc2)NC(=O)[C@H](Cc2c[nH]c3ccccc23)NC(=O)[C@H](CO)NC(=O)[C@H](CC(N)=O)NC(=O)[C@H](C)N(C)C(=O)C[C@@H](C(=O)N2CCCC2)NC(=O)[C@H](CC(C)C)NC(=O)CNC(=O)[C@H](Cc2c[nH]c3ccccc23)NC1=O` [PP21] (HELM PEPTIDE1{[meA].N.S.W.Y.K.I.W.G.L.D.[C1CCN([*:1])C1]}$PEPTIDE1,PEPTIDE1,1:R1-11:R3$$$V2.0), the pIC50 is 4.87.
Turning to `CC[C@H](C)[C@@H]1NC(=O)[C@H](CCCCN)NC(=O)[C@H](Cc2ccc(O)cc2)NC(=O)[C@H](Cc2ccccc2)NC(=O)[C@H](C(C)C)NC(=O)[C@H](C)N(C)C(=O)C[C@@H](C(=O)N2CCCC2)NC(=O)[C@H](Cc2c[nH]c3ccccc23)NC(=O)[C@H](CC(N)=O)NC(=O)[C@H](Cc2ccc(O)cc2)NC(=O)[C@H](Cc2c[nH]c3ccccc23)NC1=O` [PP19] (HELM PEPTIDE1{[meA].V.F.Y.K.I.W.Y.N.W.D.[C1CCN([*:1])C1]}$PEPTIDE1,PEPTIDE1,1:R1-11:R3$$$V2.0), the pIC50 is 5.43.
Still for that read-out and setting: in the case of `CC[C@H](C)[C@@H]1NC(=O)[C@H](CC(=O)O)NC(=O)[C@H](C)N(C)C(=O)C[C@@H](C(=O)N2CCCC2)NC(=O)[C@H](Cc2c[nH]c3ccccc23)NC(=O)[C@H](CC(=O)O)NC(=O)[C@H](Cc2c[nH]c3ccccc23)NC(=O)[C@H](Cc2ccc(O)cc2)NC(=O)[C@H](CC(=O)O)NC(=O)[C@H](Cc2ccccc2)NC(=O)[C@H](Cc2c[nH]c3ccccc23)NC1=O` [PP17] (HELM PEPTIDE1{[meA].D.I.W.F.D.Y.W.D.W.D.[C1CCN([*:1])C1]}$PEPTIDE1,PEPTIDE1,1:R1-11:R3$$$V2.0) it was above 7.22.

The values are drawn from patent US20250018014A1, “METHOD FOR TREATING AND/OR PREVENTING REGNASE-1-RELATED DISEASE” (OSAKA UNIVERSITY, priority 2018, published 2025).
